# Laboratory results reported in patent US20250101023A1, “HETEROARYL DERIVATIVE AND USES THEREOF” (IUCF-HYU (INDUSTRY-UNIVERSITY COOPERATION FOUNDATION …, priority 2022, published 2025).
# Legend:
# MYLK4 = MYLK4 (Homo sapiens (Human), UniProt Q86YV6); test: Kinome-wide profiling; format: biochemical; settings: read-out: % Residual Activity (mean)
# MLCK2/MYLK2 = MLCK2/MYLK2 (Homo sapiens (Human), UniProt Q9H1R3); test: Kinome-wide profiling; format: biochemical; settings: read-out: % Residual Activity (mean)
# STK25/YSK1 = STK25/YSK1 (Homo sapiens (Human), UniProt O00506); test: Kinome-wide profiling; format: biochemical; settings: read-out: % Residual Activity (mean)
# FGFR4 = FGFR4 (Homo sapiens (Human), UniProt P22455); test: Kinome-wide profiling; format: biochemical; settings: read-out: % Residual Activity (mean)
# ACK1 = ACK1 (Homo sapiens (Human), UniProt Q07912); test: Kinome-wide profiling; format: biochemical; settings: read-out: % Residual Activity (mean)
# ACK1, sequence (Q07912 whole entry): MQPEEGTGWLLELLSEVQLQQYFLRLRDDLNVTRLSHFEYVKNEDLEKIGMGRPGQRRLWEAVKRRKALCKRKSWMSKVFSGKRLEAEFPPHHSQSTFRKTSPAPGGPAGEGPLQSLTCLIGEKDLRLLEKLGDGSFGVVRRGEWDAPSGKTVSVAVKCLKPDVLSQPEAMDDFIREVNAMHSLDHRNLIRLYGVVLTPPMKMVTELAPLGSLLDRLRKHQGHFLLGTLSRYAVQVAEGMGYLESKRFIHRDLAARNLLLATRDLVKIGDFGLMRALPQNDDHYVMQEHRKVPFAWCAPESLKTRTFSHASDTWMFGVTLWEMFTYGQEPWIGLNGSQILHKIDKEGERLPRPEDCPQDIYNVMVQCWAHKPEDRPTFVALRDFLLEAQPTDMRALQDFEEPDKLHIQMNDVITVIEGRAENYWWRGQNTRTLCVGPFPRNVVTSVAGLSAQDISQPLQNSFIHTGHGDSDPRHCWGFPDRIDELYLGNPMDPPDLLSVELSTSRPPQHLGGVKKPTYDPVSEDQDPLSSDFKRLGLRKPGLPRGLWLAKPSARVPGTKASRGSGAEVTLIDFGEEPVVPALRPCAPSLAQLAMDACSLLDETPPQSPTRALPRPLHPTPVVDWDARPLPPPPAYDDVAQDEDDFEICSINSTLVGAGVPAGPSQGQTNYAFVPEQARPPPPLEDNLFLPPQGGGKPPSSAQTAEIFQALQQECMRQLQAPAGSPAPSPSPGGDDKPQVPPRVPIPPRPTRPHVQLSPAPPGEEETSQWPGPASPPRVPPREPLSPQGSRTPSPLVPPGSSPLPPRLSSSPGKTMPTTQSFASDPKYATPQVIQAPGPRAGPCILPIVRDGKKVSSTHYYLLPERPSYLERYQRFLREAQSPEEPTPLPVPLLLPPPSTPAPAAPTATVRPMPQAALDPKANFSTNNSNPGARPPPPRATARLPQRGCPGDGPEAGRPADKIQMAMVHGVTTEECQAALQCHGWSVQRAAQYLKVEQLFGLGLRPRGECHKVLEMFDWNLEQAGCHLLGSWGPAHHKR
# c-MER = c-MER (Homo sapiens (Human), UniProt Q12866); test: Kinome-wide profiling; format: biochemical; settings: read-out: % Residual Activity (mean)
# MEK5 = MEK5 (Homo sapiens (Human), UniProt Q13163); test: Kinome-wide profiling; format: biochemical; settings: read-out: % Residual Activity (mean)
# MNK1 = MNK1 (Homo sapiens (Human), UniProt Q9BUB5); test: Kinome-wide profiling; format: biochemical; settings: read-out: % Residual Activity (mean)
# MNK1, sequence (Q9BUB5 whole entry): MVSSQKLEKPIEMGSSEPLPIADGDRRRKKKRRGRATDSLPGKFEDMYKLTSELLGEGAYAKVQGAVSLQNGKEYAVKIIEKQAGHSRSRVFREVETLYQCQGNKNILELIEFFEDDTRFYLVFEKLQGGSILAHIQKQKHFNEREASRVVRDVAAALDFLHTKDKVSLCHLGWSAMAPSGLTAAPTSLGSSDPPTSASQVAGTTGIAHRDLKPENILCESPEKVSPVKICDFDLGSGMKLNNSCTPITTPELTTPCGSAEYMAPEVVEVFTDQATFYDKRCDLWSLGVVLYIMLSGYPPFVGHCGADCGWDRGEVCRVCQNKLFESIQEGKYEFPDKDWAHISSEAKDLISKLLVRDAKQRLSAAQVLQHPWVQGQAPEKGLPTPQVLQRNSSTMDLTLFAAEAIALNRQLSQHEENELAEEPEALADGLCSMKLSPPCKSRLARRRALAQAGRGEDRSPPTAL
# TSSK3/STK22C = TSSK3/STK22C (Homo sapiens (Human), UniProt Q96PN8); test: Kinome-wide profiling; format: biochemical; settings: read-out: % Residual Activity (mean)
# CK1epsilon = CK1epsilon (Homo sapiens (Human), UniProt P49674); test: Kinome-wide profiling; format: biochemical; settings: read-out: % Residual Activity (mean)
# CK1epsilon, sequence (P49674 whole entry): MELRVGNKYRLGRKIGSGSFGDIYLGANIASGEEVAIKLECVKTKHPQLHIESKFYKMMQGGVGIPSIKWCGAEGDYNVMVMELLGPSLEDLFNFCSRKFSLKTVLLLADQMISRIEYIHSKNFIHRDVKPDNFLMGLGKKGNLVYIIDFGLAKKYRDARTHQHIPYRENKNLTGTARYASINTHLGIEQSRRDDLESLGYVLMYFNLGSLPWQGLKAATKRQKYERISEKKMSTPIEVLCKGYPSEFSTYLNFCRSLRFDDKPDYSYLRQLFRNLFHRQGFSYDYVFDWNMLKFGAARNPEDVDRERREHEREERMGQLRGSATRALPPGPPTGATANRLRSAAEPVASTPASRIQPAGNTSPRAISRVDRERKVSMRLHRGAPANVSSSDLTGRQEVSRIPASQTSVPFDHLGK
# [1] = system: Pol II CTD (Ser2) phosphorylation; test: Western blot, Pol II CTD Ser2 phosphorylation; format: cell-based; settings: SK-Br3 and HCC1954 cell lines, 40 and 200 nM, 2 hours
# TLK1 = TLK1 (Homo sapiens (Human), UniProt Q9UKI8); test: Kinome-wide profiling; format: biochemical; settings: read-out: % Residual Activity (mean)
# c-Kit = c-Kit (Homo sapiens (Human), UniProt P10721); test: Kinome-wide profiling; format: biochemical; settings: read-out: % Residual Activity (mean)
# PKCepsilon = PKCepsilon (Homo sapiens (Human), UniProt Q02156); test: Kinome-wide profiling; format: biochemical; settings: read-out: % Residual Activity (mean)
# c-MET = c-MET (Homo sapiens (Human), UniProt P08581); test: Kinome-wide profiling; format: biochemical; settings: read-out: % Residual Activity (mean)
# RAF1 = test: Kinome-wide profiling; format: biochemical, human; settings: 10 μM
# LRRK2 = LRRK2 (Homo sapiens (Human), UniProt Q5S007); test: Kinome-wide profiling; format: biochemical; settings: read-out: % Residual Activity (mean)
# LRRK2, sequence (Q5S007 whole entry): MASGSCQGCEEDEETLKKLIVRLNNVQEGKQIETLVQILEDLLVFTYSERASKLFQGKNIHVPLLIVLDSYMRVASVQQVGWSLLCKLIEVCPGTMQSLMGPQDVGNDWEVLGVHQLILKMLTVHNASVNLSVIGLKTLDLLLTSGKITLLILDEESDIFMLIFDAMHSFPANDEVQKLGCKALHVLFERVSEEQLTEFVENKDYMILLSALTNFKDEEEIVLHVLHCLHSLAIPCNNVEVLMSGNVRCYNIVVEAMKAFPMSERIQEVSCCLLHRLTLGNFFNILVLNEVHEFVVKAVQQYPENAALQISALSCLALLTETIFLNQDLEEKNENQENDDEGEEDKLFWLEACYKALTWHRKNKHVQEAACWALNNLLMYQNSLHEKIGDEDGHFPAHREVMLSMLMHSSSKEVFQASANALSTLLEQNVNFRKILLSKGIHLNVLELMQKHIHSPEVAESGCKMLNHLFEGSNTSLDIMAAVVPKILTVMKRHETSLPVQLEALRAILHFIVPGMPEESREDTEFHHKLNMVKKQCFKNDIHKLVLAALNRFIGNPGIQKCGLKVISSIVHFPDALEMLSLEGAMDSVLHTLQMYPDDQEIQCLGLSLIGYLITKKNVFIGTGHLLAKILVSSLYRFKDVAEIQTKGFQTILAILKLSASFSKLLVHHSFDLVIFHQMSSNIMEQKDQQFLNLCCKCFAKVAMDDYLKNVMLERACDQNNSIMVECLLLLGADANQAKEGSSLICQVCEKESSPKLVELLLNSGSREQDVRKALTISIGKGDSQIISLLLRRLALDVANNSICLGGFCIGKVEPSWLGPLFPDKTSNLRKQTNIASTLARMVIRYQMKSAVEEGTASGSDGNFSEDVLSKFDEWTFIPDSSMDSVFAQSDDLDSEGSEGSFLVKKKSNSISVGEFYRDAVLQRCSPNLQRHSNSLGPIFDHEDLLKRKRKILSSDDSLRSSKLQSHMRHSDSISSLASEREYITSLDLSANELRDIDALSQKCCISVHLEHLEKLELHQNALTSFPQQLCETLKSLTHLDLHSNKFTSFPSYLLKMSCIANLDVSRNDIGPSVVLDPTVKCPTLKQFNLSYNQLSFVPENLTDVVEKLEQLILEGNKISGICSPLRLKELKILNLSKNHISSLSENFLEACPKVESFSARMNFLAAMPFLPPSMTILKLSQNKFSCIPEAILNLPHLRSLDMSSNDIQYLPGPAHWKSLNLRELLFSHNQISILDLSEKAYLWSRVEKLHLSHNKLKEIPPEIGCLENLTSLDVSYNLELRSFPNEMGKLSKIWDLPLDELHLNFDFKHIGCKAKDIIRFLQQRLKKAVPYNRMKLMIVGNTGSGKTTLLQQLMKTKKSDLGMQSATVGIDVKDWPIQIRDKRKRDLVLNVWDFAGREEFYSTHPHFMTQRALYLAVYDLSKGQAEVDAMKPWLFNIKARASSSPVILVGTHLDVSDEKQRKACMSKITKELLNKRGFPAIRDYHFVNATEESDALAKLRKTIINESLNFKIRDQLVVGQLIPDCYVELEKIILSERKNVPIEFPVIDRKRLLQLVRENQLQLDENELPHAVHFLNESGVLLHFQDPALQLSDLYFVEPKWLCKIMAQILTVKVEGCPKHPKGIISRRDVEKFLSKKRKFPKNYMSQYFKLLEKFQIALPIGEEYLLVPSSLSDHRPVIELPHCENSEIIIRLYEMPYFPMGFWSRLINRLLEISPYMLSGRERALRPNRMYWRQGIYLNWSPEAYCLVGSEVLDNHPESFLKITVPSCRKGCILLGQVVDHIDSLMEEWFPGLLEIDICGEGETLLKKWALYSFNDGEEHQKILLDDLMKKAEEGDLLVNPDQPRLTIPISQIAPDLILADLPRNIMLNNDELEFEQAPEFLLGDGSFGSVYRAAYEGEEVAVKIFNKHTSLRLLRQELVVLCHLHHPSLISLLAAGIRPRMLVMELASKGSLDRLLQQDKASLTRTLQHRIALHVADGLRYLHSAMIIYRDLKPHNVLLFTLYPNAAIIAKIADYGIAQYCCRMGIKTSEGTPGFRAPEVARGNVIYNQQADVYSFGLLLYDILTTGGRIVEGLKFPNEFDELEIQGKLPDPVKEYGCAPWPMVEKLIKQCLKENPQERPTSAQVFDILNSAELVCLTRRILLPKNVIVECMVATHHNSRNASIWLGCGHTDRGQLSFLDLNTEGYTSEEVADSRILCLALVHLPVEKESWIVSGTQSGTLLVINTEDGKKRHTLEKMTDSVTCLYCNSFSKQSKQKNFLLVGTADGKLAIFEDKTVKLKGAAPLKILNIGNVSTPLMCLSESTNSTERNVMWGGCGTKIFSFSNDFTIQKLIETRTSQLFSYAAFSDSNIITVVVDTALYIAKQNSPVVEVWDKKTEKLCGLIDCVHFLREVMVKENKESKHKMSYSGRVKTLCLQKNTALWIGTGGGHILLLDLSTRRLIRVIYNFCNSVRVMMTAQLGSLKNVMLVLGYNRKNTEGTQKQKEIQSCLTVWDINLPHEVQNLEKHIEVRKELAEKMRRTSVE
# NEK3 = NEK3 (Homo sapiens (Human), UniProt P51956); test: Kinome-wide profiling; format: biochemical; settings: read-out: % Residual Activity (mean)
# EPHA6 = EPHA6 (Homo sapiens (Human), UniProt Q9UF33); test: Kinome-wide profiling; format: biochemical; settings: read-out: % Residual Activity (mean)
# YES/YES1 = YES/YES1 (Homo sapiens (Human), UniProt P07947); test: Kinome-wide profiling; format: biochemical; settings: read-out: % Residual Activity (mean)
# c-Src = c-Src (Homo sapiens (Human), UniProt P12931); test: Kinome-wide profiling; format: biochemical; settings: read-out: % Residual Activity (mean)
# RSK3 = RSK3 (Homo sapiens (Human), UniProt Q15349); test: Kinome-wide profiling; format: biochemical; settings: read-out: % Residual Activity (mean)
# LATS1 = LATS1 (Homo sapiens (Human), UniProt O95835); test: Kinome-wide profiling; format: biochemical; settings: read-out: % Residual Activity (mean)
# CAMK1d = CAMK1d (Homo sapiens (Human), UniProt Q8IU85); test: Kinome-wide profiling; format: biochemical; settings: read-out: % Residual Activity (mean)
# MARK4 = MARK4 (Homo sapiens (Human), UniProt Q96L34); test: Kinome-wide profiling; format: biochemical; settings: read-out: % Residual Activity (mean)
# CLK2 = CLK2 (Homo sapiens (Human), UniProt P49760); test: Kinome-wide profiling; format: biochemical; settings: read-out: % Residual Activity (mean)
# TAK1 = TAK1 (Homo sapiens (Human), UniProt O43318); test: Kinome-wide profiling; format: biochemical; settings: read-out: % Residual Activity (mean)
# STK39/STLK3 = STK39/STLK3 (Homo sapiens (Human), UniProt Q9UEW8); test: Kinome-wide profiling; format: biochemical; settings: read-out: % Residual Activity (mean)
# NEK7 = NEK7 (Homo sapiens (Human), UniProt Q8TDX7); test: Kinome-wide profiling; format: biochemical; settings: read-out: % Residual Activity (mean)
# JNK2 = JNK2 (Homo sapiens (Human), UniProt P45984); test: Kinome-wide profiling; format: biochemical; settings: read-out: % Residual Activity (mean)
# JNK2, sequence (P45984 whole entry): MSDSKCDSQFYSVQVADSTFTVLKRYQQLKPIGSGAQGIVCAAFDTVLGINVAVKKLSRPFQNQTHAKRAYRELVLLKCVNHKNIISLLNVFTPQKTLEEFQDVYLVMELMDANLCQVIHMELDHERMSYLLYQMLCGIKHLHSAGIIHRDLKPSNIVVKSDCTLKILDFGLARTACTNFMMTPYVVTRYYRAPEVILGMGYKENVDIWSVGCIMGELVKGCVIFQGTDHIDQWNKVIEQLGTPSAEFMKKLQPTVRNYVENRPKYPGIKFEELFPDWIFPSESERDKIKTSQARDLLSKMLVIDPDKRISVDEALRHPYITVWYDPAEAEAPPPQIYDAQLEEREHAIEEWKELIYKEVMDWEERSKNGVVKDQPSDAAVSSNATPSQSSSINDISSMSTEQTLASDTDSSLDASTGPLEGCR
# RON/MST1R = RON/MST1R (Homo sapiens (Human), UniProt Q04912); test: Kinome-wide profiling; format: biochemical; settings: read-out: % Residual Activity (mean)
# LIMK2 = LIMK2 (Homo sapiens (Human), UniProt P53671); test: Kinome-wide profiling; format: biochemical; settings: read-out: % Residual Activity (mean)
# AXL = AXL (Homo sapiens (Human), UniProt P30530); test: Kinome-wide profiling; format: biochemical; settings: read-out: % Residual Activity (mean)
# CLK1 = CLK1 (Homo sapiens (Human), UniProt P49759); test: Kinome-wide profiling; format: biochemical; settings: read-out: % Residual Activity (mean)
# TNK1 = TNK1 (Homo sapiens (Human), UniProt Q13470); test: Kinome-wide profiling; format: biochemical; settings: read-out: % Residual Activity (mean)
# TGFBR2 = TGFBR2 (Homo sapiens (Human), UniProt P37173); test: Kinome-wide profiling; format: biochemical; settings: read-out: % Residual Activity (mean)
# TAOK3/JIK = TAOK3/JIK (Homo sapiens (Human), UniProt Q9H2K8); test: Kinome-wide profiling; format: biochemical; settings: read-out: % Residual Activity (mean)
# RET = RET (Homo sapiens (Human), UniProt P07949); test: Kinome-wide profiling; format: biochemical; settings: read-out: % Residual Activity (mean)
# PKD2/PRKD2 = PKD2/PRKD2 (Homo sapiens (Human), UniProt Q9BZL6); test: Kinome-wide profiling; format: biochemical; settings: read-out: % Residual Activity (mean)
compound,measurement,setting,value
"CCn1cnc2c(NCc3ccc(-c4ccccn4)nc3)nc(-c3ccc(N)nc3)nc21 [Example 53, N-([2,2′-bipyridin]-5-ylmethyl)-2-(6-aminopyridin-3-yl)-9-ethyl-9H-purin-6-amine]",remaining activity at 10 µM,MYLK4,4.07%
same,remaining activity at 10 µM,MLCK2/MYLK2,60%
same,remaining activity at 10 µM,STK25/YSK1,23.1%
same,remaining activity at 10 µM,FGFR4,87.4%
same,remaining activity at 10 µM,ACK1,13.7%
same,remaining activity at 10 µM,c-MER,71%
same,remaining activity at 10 µM,MEK5,84.1%
same,remaining activity at 10 µM,MNK1,89.2%
same,remaining activity at 10 µM,TSSK3/STK22C,91.5%
same,remaining activity at 10 µM,CK1epsilon,29.8%
same,Pol II CTD (Ser2) phosphorylation,[1],inhibited Pol II CTD (Ser2) phosphorylation
same,Pol II CTD (Ser2) phosphorylation,[1]; listed as Compound 53,strong dose-dependent suppression of Pol II phosphorylation
same,remaining activity at 10 µM,TLK1,67.8%
same,remaining activity at 10 µM,c-Kit,14.2%
same,remaining activity at 10 µM,PKCepsilon,94.1%
same,remaining activity at 10 µM,c-MET,96.4%
same,% Residual Activity (mean),RAF1,68.57%
same,remaining activity at 10 µM,LRRK2,17.8%
same,remaining activity at 10 µM,NEK3,86.6%
same,remaining activity at 10 µM,EPHA6,3.04%
same,remaining activity at 10 µM,YES/YES1,20.6%
same,remaining activity at 10 µM,c-Src,60.1%
same,remaining activity at 10 µM,RSK3,58%
same,remaining activity at 10 µM,LATS1,85%
same,remaining activity at 10 µM,CAMK1d,58%
same,remaining activity at 10 µM,MARK4,66.9%
same,remaining activity at 10 µM,CLK2,11.7%
same,remaining activity at 10 µM,TAK1,98.2%
same,remaining activity at 10 µM,STK39/STLK3,29.6%
same,remaining activity at 10 µM,NEK7,93.2%
same,remaining activity at 10 µM,JNK2,61.7%
same,remaining activity at 10 µM,RON/MST1R,86.8%
same,remaining activity at 10 µM,LIMK2,76.5%
same,remaining activity at 10 µM,AXL,44.2%
same,remaining activity at 10 µM,CLK1,13.7%
same,remaining activity at 10 µM,TNK1,91.3%
same,remaining activity at 10 µM,TGFBR2,94.5%
same,remaining activity at 10 µM,TAOK3/JIK,23.1%
same,remaining activity at 10 µM,RET,79.5%
same,remaining activity at 10 µM,PKD2/PRKD2,72.3%
